Experimental data from patent publication US10500166B2, “Methods for the treatment of erectile dysfunction using fispemifene” (QUATRX PHARMACEUTICALS, priority 2007, dated 2019).

Columns and labels:
Format in all cases: in vivo, human
free testosterone = assay: Example 3 study in hypogonadal men: serum free testosterone measured by equilibrium dialysis (ITT)
Experimental: FIG. 6 depicts a graph of the data of the study from Example 3 showing serum free testosterone levels (ng/dL) measured by equilibrium dialysis over time for each of the treatment groups. The bars from left to right for each of the BL (baseline), 2 week, 4 week, and 6 week timepoints (the 6 week timepoint occurred 2 weeks after the discontinuation of study drug at week 4) correspond to the placebo, 100 mg, 200 mg, and 300 mg/day doses, respectively;
(§1) A randomized, double-blind, placebo controlled, parallel-group study of once-daily doses of fispemifene (100, 200, and 300 mg/day) given for 4 weeks was conducted in a population of hypogonadal men. Subjects were required to meet all of the following inclusion criteria at screening and prior to randomization to be eligible for the study:
(§2) There were 77 subjects total. The number of subjects randomized to the 100 mg fispemifene, 200 mg fispemifene, 300 mg fispemifene, and placebo arms were 21, 21, 19, and 16, respectively.
(§3) Subjects were randomly assigned to one of four treatment groups in a 1:1:1:1 ratio: • Treatment A (100 mg): fispemifene 100 mg+placebo+placebo; • Treatment B (200 mg): fispemifene 100 mg+fispemifene 100 mg+placebo; • Treatment C (300 mg): fispemifene 100 mg+fispemifene 100 mg+fispemifene 100 mg; and • Treatment D (Placebo): placebo+placebo+placebo.
(§4) Subjects took one dose (three capsules) of study medication once a day at home for 4 weeks. Capsules were to be taken in the morning immediately after breakfast, with the exception of the morning of the Week 4 visit. Capsules were not to be taken on the morning of the Week 4 visit because trough plasma levels of fispemifene were determined by a blood sample taken at this visit. Each subject was randomly assigned to treatment with one of the 3 different dose regimens of fispemifene or placebo vehicle. Each subject received a 4 week supply of study drug.
(§5) Blood samples were taken from the subjects within 1 week prior to dosing with study drug to establish baseline values; after 2 and 4 weeks of randomization; and 2 weeks after the last dose of study drug. Serum was prepared from those samples and used to determine the mean % change from baseline in total testosterone, free testosterone, SHBG (sex hormone-binding globulin), DHT (dihydrotestosterone), E2 (estradiol), LH (luteinizing hormone), FSH (follicle stimulating hormone), and inhibin B.
1. Percent change from baseline in free testosterone and calculated free testosterone at Weeks 2, 4, and 6;

[1] = tested on: DHT (dihydrotestosterone); assay: Example 3 study in hypogonadal men: serum dihydrotestosterone (ITT); settings: for Dihydrotestosterone, Max / Dihydrotestosterone, Mean ± SD / Dihydrotestosterone, Median / Dihydrotestosterone, Min: Baseline (Visit 2);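 for Dihydrotestosterone, Max: serum DHT concentration in pg/mL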;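 for Dihydrotestosterone, Mean ± SD: serum DHT concentration in pg/mL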;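 for Dihydrotestosterone, Median: serum DHT concentration in pg/mL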;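 for Dihydrotestosterone, Min: serum DHT concentration in pg/mL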
Experimental: as §1, §2, §3, §4, §5
(§6) 3. Percent change from baseline in SHBG, DHT, E2, LH, FSH, inhibin B, and testosterone/E2 ratio at Weeks 2, 4, and 6.

E2 (estradiol) = assay: Example 3 study in hypogonadal men: serum estradiol (ITT); settings: for Estradiol, Max / Estradiol, Mean ± SD / Estradiol, Median / Estradiol, Min: Baseline (Visit 2);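 for Estradiol, Max: estradiol concentrations in pg/mL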;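 for Estradiol, Mean ± SD: estradiol concentrations in pg/mL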;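 for Estradiol, Median: estradiol concentrations in pg/mL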;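 for Estradiol, Min: estradiol concentrations in pg/mL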
Experimental: as §1, §2, §3, §4, §5, §6

[2] = 100 mg/day, Week 6 (2 weeks after discontinuation)
[3] = 200 mg/day, Week 6 (2 weeks after discontinuation)
[4] = 300 mg/day, Week 6 (2 weeks after discontinuation)
[5] = 100 mg/day, to Week 6 (2 weeks after discontinuation)
[6] = 200 mg/day, to Week 6 (2 weeks after discontinuation)
[7] = 300 mg/day, to Week 6 (2 weeks after discontinuation)

OCCOCCOc1ccc(/C(=C(/CCCl)c2ccccc2)c2ccccc2)cc1 [Fispemifene, (Z)-2-{2-[4-(4-Chloro-1,2-diphenylbut-1-enyl)phenoxy]ethoxy}ethanol]
Free Testosterone, Max (free testosterone; 100 mg/day, Baseline (Visit 2)): 12.20 ng/dL | Free Testosterone, Mean ± SD (free testosterone; 100 mg/day, Baseline (Visit 2)): 8.35 ± 2.536 ng/dL | Free Testosterone, Median (free testosterone; 100 mg/day, Baseline (Visit 2)): 8.40 ng/dL | Free Testosterone, Min (free testosterone; 100 mg/day, Baseline (Visit 2)): 3.20 ng/dL | Free Testosterone, Max (free testosterone; 100 mg/day, Week 2): 17.7 ng/dL | Free Testosterone, Mean ± SD (free testosterone; 100 mg/day, Week 2): 11.6 ± 3.93 ng/dL | Free Testosterone, Median (free testosterone; 100 mg/day, Week 2): 10.3 ng/dL | Free Testosterone, Min (free testosterone; 100 mg/day, Week 2): 5.7 ng/dL | Free Testosterone, Max (free testosterone; 100 mg/day, Week 4): 18.2 ng/dL | Free Testosterone, Mean ± SD (free testosterone; 100 mg/day, Week 4): 11.3 ± 3.40 ng/dL | Free Testosterone, Median (free testosterone; 100 mg/day, Week 4): 10.8 ng/dL | Free Testosterone, Min (free testosterone; 100 mg/day, Week 4): 6.4 ng/dL | Free Testosterone, Max (free testosterone; [2]): 13.30 ng/dL | Free Testosterone, Mean ± SD (free testosterone; [2]): 8.93 ± 0.023 ng/dL | Free Testosterone, Median (free testosterone; [2]): 9.80 ng/dL | Free Testosterone, Min (free testosterone; [2]): 4.90 ng/dL | Free Testosterone, % Change from Baseline, Mean ± SD (free testosterone; 100 mg/day, to Week 2): 0.4 ± 0.00387% | Free Testosterone, Max (free testosterone; 200 mg/day, Baseline (Visit 2)): 15.90 ng/dL | Free Testosterone, Mean ± SD (free testosterone; 200 mg/day, Baseline (Visit 2)): 8.48 ± 3.043 ng/dL | Free Testosterone, Median (free testosterone; 200 mg/day, Baseline (Visit 2)): 8.50 ng/dL | Free Testosterone, Min (free testosterone; 200 mg/day, Baseline (Visit 2)): 4.30 ng/dL | Free Testosterone, Max (free testosterone; 200 mg/day, Week 2): 16.4 ng/dL | Free Testosterone, Mean ± SD (free testosterone; 200 mg/day, Week 2): 10.6 ± 3.52 ng/dL | Free Testosterone, Median (free testosterone; 200 mg/day, Week 2): 10.0 ng/dL | Free Testosterone, Min (free testosterone; 200 mg/day, Week 2): 4.8 ng/dL | Free Testosterone, Max (free testosterone; 200 mg/day, Week 4): 19.4 ng/dL | Free Testosterone, Mean ± SD (free testosterone; 200 mg/day, Week 4): 11.8 ± 3.80 ng/dL | Free Testosterone, Median (free testosterone; 200 mg/day, Week 4): 12.2 ng/dL | Free Testosterone, Min (free testosterone; 200 mg/day, Week 4): 5.2 ng/dL | Free Testosterone, Max (free testosterone; [3]): 16.80 ng/dL | Free Testosterone, Mean ± SD (free testosterone; [3]): 9.10 ± 3.307 ng/dL | Free Testosterone, Median (free testosterone; [3]): 8.00 ng/dL | Free Testosterone, Min (free testosterone; [3]): 5.40 ng/dL | Free Testosterone, Max (free testosterone; 300 mg/day, Baseline (Visit 2)): 12.30 ng/dL | Free Testosterone, Mean ± SD (free testosterone; 300 mg/day, Baseline (Visit 2)): 8.19 ± 2.966 ng/dL | Free Testosterone, Median (free testosterone; 300 mg/day, Baseline (Visit 2)): 8.20 ng/dL | Free Testosterone, Max (free testosterone; 300 mg/day, Week 2): 22.0 ng/dL | Free Testosterone, Mean ± SD (free testosterone; 300 mg/day, Week 2): 12.1 ± 4.96 ng/dL | Free Testosterone, Median (free testosterone; 300 mg/day, Week 2): 12.9 ng/dL | Free Testosterone, Min (free testosterone; 300 mg/day, Week 2): 0.2 ng/dL | Free Testosterone, Max (free testosterone; 300 mg/day, Week 4): 21.2 ng/dL | Free Testosterone, Mean ± SD (free testosterone; 300 mg/day, Week 4): 12.5 ± 5.00 ng/dL | Free Testosterone, Median (free testosterone; 300 mg/day, Week 4): 14.0 ng/dL | Free Testosterone, Min (free testosterone; 300 mg/day, Week 4): 0.1 ng/dL | Free Testosterone, Max (free testosterone; [4]): 17.30 ng/dL | Free Testosterone, Mean ± SD (free testosterone; [4]): 9.30 ± 3.567 ng/dL | Free Testosterone, Median (free testosterone; [4]): 9.80 ng/dL | Free Testosterone, Min (free testosterone; [4]): 0.30 ng/dL | Dihydrotestosterone, Max ([1]; 100 mg/day): 385.0 pg/mL | Dihydrotestosterone, Mean ± SD ([1]; 100 mg/day): 177.5 ± 88.58 pg/mL | Dihydrotestosterone, Median ([1]; 100 mg/day): 180.0 pg/mL | Dihydrotestosterone, Min ([1]; 100 mg/day): 50.0 pg/mL | Dihydrotestosterone, % Change from Baseline, Max ([1]; 100 mg/day, to Week 2): 109% | Dihydrotestosterone, % Change from Baseline, Median ([1]; 100 mg/day, to Week 2): 42% | Dihydrotestosterone, % Change from Baseline, Min ([1]; 100 mg/day, to Week 2): 0% | Dihydrotestosterone, % Change from Baseline, Max ([1]; 100 mg/day, to Week 4): 98% | Dihydrotestosterone, % Change from Baseline, Median ([1]; 100 mg/day, to Week 4): 33% | Dihydrotestosterone, % Change from Baseline, Max [1, 5]: 64% | Dihydrotestosterone, % Change from Baseline, Median [1, 5]: 19% | Dihydrotestosterone, Max ([1]; 200 mg/day): 398.0 pg/mL | Dihydrotestosterone, Mean ± SD ([1]; 200 mg/day): 185.2 ± 95.37 pg/mL | Dihydrotestosterone, Median ([1]; 200 mg/day): 168.0 pg/mL | Dihydrotestosterone, Min ([1]; 200 mg/day): 67.0 pg/mL | Dihydrotestosterone, % Change from Baseline, Max ([1]; 200 mg/day, to Week 2): 128% | Dihydrotestosterone, % Change from Baseline, Median ([1]; 200 mg/day, to Week 2): 50% | Dihydrotestosterone, % Change from Baseline, Max ([1]; 200 mg/day, to Week 4): 162% | Dihydrotestosterone, % Change from Baseline, Median ([1]; 200 mg/day, to Week 4): 61% | Dihydrotestosterone, % Change from Baseline, Max [1, 6]: 78% | Dihydrotestosterone, % Change from Baseline, Median [1, 6]: 11% | Dihydrotestosterone, Max ([1]; 300 mg/day): 294.0 pg/mL | Dihydrotestosterone, Mean ± SD ([1]; 300 mg/day): 171.6 ± 76.42 pg/mL | Dihydrotestosterone, Median ([1]; 300 mg/day): 179.0 pg/mL | Dihydrotestosterone, Min ([1]; 300 mg/day): 50.0 pg/mL | Dihydrotestosterone, % Change from Baseline, Max ([1]; 300 mg/day, to Week 2): 162% | Dihydrotestosterone, % Change from Baseline, Median ([1]; 300 mg/day, to Week 2): 65% | Dihydrotestosterone, % Change from Baseline, Min ([1]; 300 mg/day, to Week 2): 0% | Dihydrotestosterone, % Change from Baseline, Max ([1]; 300 mg/day, to Week 4): 163% | Dihydrotestosterone, % Change from Baseline, Median ([1]; 300 mg/day, to Week 4): 73% | Dihydrotestosterone, % Change from Baseline, Min ([1]; 300 mg/day, to Week 4): 0% | Dihydrotestosterone, % Change from Baseline, Max [1, 7]: 98% | Dihydrotestosterone, % Change from Baseline, Median [1, 7]: 19% | Estradiol, Max (E2 (estradiol); 100 mg/day): 34.0 pg/mL | Estradiol, Mean ± SD (E2 (estradiol); 100 mg/day): 18.2 ± 6.54 pg/mL | Estradiol, Median (E2 (estradiol); 100 mg/day): 18.0 pg/mL | Estradiol, Min (E2 (estradiol); 100 mg/day): 10.0 pg/mL | Estradiol, % Change from Baseline, Max (E2 (estradiol); 100 mg/day, to Week 2): 131% | Estradiol, % Change from Baseline, Median (E2 (estradiol); 100 mg/day, to Week 2): 32% | Estradiol, % Change from Baseline, Max (E2 (estradiol); 100 mg/day, to Week 4): 110% | Estradiol, % Change from Baseline, Median (E2 (estradiol); 100 mg/day, to Week 4): 31% | Estradiol, % Change from Baseline, Max (E2 (estradiol); [5]): 80% | Estradiol, % Change from Baseline, Median (E2 (estradiol); [5]): 13% | Estradiol, Max (E2 (estradiol); 200 mg/day): 33.0 pg/mL | Estradiol, Mean ± SD (E2 (estradiol); 200 mg/day): 19.2 ± 6.23 pg/mL | Estradiol, Median (E2 (estradiol); 200 mg/day): 17.0 pg/mL | Estradiol, Min (E2 (estradiol); 200 mg/day): 11.0 pg/mL | Estradiol, % Change from Baseline, Max (E2 (estradiol); 200 mg/day, to Week 2): 171% | Estradiol, % Change from Baseline, Median (E2 (estradiol); 200 mg/day, to Week 2): 23% | Estradiol, % Change from Baseline, Max (E2 (estradiol); 200 mg/day, to Week 4): 150% | Estradiol, % Change from Baseline, Median (E2 (estradiol); 200 mg/day, to Week 4): 43% | Estradiol, % Change from Baseline, Max (E2 (estradiol); [6]): 176% | Estradiol, % Change from Baseline, Median (E2 (estradiol); [6]): 23% | Estradiol, Max (E2 (estradiol); 300 mg/day): 42.0 pg/mL | Estradiol, Mean ± SD (E2 (estradiol); 300 mg/day): 20.8 ± 7.15 pg/mL | Estradiol, Median (E2 (estradiol); 300 mg/day): 22.0 pg/mL | Estradiol, Min (E2 (estradiol); 300 mg/day): 10.0 pg/mL | Estradiol, % Change from Baseline, Max (E2 (estradiol); 300 mg/day, to Week 2): 108% | Estradiol, % Change from Baseline, Median (E2 (estradiol); 300 mg/day, to Week 2): 33% | Estradiol, % Change from Baseline, Max (E2 (estradiol); 300 mg/day, to Week 4): 100% | Estradiol, % Change from Baseline, Median (E2 (estradiol); 300 mg/day, to Week 4): 29% | Estradiol, % Change from Baseline, Max (E2 (estradiol); [7]): 77% | Estradiol, % Change from Baseline, Median (E2 (estradiol); [7]): 0% | effect on serum estradiol levels (E2 (estradiol); hypogonadal men, 100-300 mg/day for 4 weeks): increased
